Measurements taken from ChEMBL document CHEMBL5465560, “Selectivity Literature for EUbOPEN Chemogenomic Library” (2024).
Values belong to the compound of their own block, whether it stands above or below them.

Assays:
[1] = biological target: T1, G protein-coupled receptor kinase 3 (Homo sapiens) (UniProt P35626); assay: Selectivity interaction (Kinase panel (Invitrogen)) EUB0000639a ADRBK2; details: at 200 nM
T1 sequence (whole entry): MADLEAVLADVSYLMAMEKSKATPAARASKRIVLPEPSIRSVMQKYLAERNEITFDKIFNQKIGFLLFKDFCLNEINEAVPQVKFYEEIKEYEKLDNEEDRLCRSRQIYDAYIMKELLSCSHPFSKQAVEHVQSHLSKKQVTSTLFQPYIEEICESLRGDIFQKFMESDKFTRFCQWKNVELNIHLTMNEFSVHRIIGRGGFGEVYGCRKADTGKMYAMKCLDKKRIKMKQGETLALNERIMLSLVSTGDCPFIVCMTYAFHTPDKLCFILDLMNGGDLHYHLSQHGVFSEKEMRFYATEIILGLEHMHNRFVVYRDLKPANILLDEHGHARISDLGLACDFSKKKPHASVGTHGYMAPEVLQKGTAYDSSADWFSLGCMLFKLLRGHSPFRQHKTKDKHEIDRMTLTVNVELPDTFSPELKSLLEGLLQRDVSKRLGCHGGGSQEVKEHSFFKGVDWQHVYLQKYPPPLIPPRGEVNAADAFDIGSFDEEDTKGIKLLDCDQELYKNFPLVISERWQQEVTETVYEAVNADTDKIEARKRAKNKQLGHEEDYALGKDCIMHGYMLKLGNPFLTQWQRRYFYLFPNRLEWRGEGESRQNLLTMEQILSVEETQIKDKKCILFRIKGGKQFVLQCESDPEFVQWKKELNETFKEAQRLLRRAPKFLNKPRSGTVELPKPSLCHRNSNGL

[2] = biological target: T2, Phosphatidylinositol 4,5-bisphosphate 3-kinase catalytic subunit delta isoform (Homo sapiens) (UniProt O00329); assay: Selectivity interaction (ProQinase) EUB0000171b PIK3CD
T2 sequence (whole entry): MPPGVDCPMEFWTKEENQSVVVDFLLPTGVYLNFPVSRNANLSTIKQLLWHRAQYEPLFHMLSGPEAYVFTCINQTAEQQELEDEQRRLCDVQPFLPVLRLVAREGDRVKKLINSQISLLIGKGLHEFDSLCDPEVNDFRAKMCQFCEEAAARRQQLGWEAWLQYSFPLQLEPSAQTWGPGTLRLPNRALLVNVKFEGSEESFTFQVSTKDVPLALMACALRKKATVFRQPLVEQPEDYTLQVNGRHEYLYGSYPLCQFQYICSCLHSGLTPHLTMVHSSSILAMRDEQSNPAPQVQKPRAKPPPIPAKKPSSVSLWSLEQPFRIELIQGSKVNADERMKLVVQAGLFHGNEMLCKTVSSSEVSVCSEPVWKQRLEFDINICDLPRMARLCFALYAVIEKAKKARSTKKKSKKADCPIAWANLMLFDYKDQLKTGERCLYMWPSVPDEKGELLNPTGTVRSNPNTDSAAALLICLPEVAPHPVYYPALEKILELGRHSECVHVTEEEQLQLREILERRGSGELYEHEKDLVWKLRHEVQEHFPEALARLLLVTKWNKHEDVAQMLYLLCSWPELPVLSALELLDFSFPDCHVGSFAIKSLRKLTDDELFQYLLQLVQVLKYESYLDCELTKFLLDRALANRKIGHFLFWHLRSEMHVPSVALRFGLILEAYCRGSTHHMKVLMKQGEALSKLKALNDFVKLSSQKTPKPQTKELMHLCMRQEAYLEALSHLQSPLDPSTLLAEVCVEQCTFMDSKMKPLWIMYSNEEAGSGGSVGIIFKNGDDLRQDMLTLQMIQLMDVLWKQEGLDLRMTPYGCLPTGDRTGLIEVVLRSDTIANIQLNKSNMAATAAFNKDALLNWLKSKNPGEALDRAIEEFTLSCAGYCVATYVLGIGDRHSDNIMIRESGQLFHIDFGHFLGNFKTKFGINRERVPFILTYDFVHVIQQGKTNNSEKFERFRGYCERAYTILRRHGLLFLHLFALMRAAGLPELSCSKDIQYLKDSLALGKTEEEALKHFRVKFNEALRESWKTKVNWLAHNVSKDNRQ

[3] = biological target: STE20/SPS1-related proline-alanine-rich protein kinase (Homo sapiens) (UniProt Q9UEW8); assay: Selectivity interaction (KinomeScan (DiscoverX)) EUB0000092b STK39; details: at 10 µM
[4] = biological target: T3, Ankyrin repeat and protein kinase domain-containing protein 1 (Homo sapiens) (UniProt Q8NFD2); assay: Selectivity interaction (LanthaScreen Eu Kinase Binding Assay) EUB0001632a ANKK1; details: at 10 µM
T3 sequence (whole entry): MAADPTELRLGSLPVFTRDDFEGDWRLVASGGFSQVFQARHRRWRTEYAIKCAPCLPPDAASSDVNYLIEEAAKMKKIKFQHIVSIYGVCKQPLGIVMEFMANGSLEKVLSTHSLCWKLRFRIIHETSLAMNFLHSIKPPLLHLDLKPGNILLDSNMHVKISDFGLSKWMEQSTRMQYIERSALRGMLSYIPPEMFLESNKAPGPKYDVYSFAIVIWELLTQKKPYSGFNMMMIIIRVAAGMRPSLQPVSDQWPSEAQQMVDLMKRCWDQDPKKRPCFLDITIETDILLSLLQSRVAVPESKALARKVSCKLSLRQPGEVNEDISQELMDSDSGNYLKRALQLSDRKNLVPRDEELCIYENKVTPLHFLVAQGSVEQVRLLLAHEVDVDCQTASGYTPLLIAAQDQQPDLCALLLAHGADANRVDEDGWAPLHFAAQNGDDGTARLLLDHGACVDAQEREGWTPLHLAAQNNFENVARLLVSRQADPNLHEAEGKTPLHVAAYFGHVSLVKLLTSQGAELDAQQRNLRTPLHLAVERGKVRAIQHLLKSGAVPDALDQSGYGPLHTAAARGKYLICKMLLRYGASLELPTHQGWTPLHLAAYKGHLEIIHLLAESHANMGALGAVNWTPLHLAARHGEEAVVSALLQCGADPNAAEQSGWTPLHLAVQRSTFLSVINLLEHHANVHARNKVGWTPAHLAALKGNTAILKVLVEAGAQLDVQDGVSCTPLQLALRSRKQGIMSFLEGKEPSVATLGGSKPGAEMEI

[5] = biological target: Tyrosine-protein kinase CSK (Homo sapiens) (UniProt P41240); assay: Selectivity interaction (Kinase panel (Z-LYTE Assay)) EUB0001632a CSK; details: at 10 µM
Chain of Tyrosine-protein kinase CSK (Homo sapiens) (P41240 2-450 limits assumed): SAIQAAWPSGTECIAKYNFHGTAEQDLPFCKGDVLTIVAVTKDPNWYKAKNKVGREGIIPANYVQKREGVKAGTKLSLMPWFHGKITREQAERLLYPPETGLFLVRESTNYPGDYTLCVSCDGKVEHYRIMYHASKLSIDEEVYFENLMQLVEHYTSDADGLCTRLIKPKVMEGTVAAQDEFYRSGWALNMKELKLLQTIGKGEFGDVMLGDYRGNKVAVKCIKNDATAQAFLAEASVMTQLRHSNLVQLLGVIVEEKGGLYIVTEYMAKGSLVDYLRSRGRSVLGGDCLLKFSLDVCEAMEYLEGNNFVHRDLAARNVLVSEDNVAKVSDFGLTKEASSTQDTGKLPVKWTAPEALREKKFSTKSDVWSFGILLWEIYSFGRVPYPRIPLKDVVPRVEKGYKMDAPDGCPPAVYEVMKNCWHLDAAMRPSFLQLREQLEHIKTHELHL

% of inhibition [1]: 2.95%
SMILES: CC[C@@H]1[C@H](F)C(=O)N[C@@H]1COc1nccc2cc(C(N)=O)c(OC)cc12 [ZIMLOVISERTIB]

% of control ([2]; at 1 µM): 119%
% of control ([2]; at 5 µM): 113%
SMILES: C=CC(=O)Nc1cccc(C(=O)Nc2ccc(Nc3cc(-c4[nH]c(SC)nc4C)ccn3)cc2)c1

SMILES: CCC(=O)N1CCN(c2ccc(-n3c(=O)ccc4cnc5ccc(-c6cnc7ccccc7c6)cc5c43)cc2C(F)(F)F)CC1
% of control [3]: 100%

% of inhibition [4]: -44.9%
% of control [5]: 10.7%
SMILES: Cn1cc(-n2cnc3c(NCc4nc5cc(Cl)c(Cl)cc5[nH]4)nc(N4CCOCC4)nc32)cn1
